Like-named read-outs stand apart in the source and are kept apart here. Bridge positions count the residues as written; N and C are the ends. Square brackets hold non-standard residues; d marks the D form. Peptide text beside a SMILES is read from it. Pen = CC(C)(S)[C@H](N)C(=O)O; Nle = CCCC[C@H](N)C(=O)O; GABA = NCCCC(=O)O; βAla = NCCC(=O)O
What was measured:
hMC1-R [1] = biological target: T1, hMC1-R (Homo sapiens, UniProt Q01726); assay: Radioligand binding assay, [125I]-NDP-α-MSH competition, CHO-K1 membranes
T1 construct: expressed in transfected cells; host or cells: CHO-K1
T1 sequence (Q01726 whole entry): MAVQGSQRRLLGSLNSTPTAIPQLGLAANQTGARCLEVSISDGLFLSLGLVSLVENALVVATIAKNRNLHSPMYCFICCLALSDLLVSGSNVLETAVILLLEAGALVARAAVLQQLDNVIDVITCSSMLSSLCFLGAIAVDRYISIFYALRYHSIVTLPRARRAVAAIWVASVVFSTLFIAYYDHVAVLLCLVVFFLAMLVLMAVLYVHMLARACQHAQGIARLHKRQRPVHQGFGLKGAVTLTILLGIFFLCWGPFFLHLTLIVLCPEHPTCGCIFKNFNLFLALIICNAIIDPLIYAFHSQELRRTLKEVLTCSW
Protocol: (§1) Cellular membranes used for the in vitro receptor binding assays were obtained from transgenic CHO-K1 cells stably expressing hMC-R receptor subtypes 1, 3, 4 or 5. […] The pellets were resuspended in the same buffer and centrifuged at 50,000 g for 10 minutes at approximately 4° C. The washed pellets containing the cellular membranes were stored at approximately −80° C.
(§2) Cell membranes (1-10 μg protein/well) prepared as described above were incubated in 50 mM Tris-HCl at pH 7.4 containing 0.2% bovine serum albumin (BSA), 5 mM MgCl2, 1 mM CaCl2 and 0.1 mg/mL bacitracin, with increasing concentrations of the test compound and 0.1-0.3 nM [^25I]-NDP-α-MSH for approximately 90-120 minutes at approximately 37° C. […] Filters were washed three times with 50 mM Tris-HCl at pH 7.4 at a temperature of approximately 0-4° C. and then assayed for radioactivity using a Packard Topcount® scintillation counter. Binding data were analyzed by computer-assisted non-linear regression analysis (XL fit; IDBS).

hMC3-R [2] = biological target: T2, hMC3-R (Homo sapiens, UniProt P41968); assay: as above
T2 construct: expressed in transfected cells; host or cells: CHO-K1
T2 sequence (P41968 whole entry): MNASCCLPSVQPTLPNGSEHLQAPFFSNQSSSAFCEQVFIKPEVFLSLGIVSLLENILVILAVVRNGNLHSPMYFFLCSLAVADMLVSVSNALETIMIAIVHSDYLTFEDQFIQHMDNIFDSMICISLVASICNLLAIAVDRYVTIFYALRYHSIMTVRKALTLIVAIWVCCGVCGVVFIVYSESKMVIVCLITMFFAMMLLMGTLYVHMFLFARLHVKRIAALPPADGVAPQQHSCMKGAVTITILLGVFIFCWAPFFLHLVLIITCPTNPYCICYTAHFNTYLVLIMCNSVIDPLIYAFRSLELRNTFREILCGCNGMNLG
Protocol: as §1, §2

hMC4-R [3] = biological target: T3, hMC4-R (Homo sapiens, UniProt P32245); assay: as above
T3 construct: expressed in transfected cells; host or cells: CHO-K1
T3 sequence (P32245 whole entry): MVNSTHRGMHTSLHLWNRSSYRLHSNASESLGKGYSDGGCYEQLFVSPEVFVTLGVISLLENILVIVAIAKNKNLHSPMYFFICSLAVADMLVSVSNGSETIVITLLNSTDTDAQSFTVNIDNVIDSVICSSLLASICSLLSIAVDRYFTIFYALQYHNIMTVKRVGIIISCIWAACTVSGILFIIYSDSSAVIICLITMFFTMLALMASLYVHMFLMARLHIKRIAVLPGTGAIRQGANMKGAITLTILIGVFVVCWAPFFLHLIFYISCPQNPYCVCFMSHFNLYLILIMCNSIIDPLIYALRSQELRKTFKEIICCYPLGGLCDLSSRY
Protocol: as §1, §2

hMC5-R [4] = biological target: T4, hMC5-R (Homo sapiens, UniProt P33032); assay: as above
T4 construct: expressed in transfected cells; host or cells: CHO-K1
T4 sequence (P33032 whole entry): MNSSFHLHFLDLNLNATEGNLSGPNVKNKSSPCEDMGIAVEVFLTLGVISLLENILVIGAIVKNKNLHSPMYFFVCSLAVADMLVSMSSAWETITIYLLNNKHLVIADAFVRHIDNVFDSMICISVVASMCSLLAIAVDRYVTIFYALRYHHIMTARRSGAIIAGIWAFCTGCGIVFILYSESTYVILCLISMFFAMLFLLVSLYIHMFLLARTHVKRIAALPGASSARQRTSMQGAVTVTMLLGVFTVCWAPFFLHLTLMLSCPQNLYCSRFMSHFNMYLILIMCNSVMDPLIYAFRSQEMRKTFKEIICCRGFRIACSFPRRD
Protocol: as §1, §2

hMC1-R [5] = biological target: T1, hMC1-R; assay: cyclic AMP bioassay (ECL) in CHO-K1 cells; assay type: cell-based; conditions: read-out: EC50 hMC1-R
Protocol: (§3) Intracellular cyclic AMP (cAMP) levels were determined by an electrochemiluminescence (ECL) assay (Meso Scale Discovery®, Gaithersburg, Md.; referred to hereinafter as MSD). […] Transgenic CHO-K1 cells stably expressing hMC receptor subtypes 1, 3, 4 or 5 were dispensed at a density of approximately 7,000 cells/well in 384-well Multi-Array®plates (MSD) containing integrated carbon electrodes and coated with anti-cAMP antibody. Increasing concentrations of the test compounds were added and the cells were incubated for approximately 40 minutes at approximately 37° C. […] At the end of the second incubation period read buffer (Tris-buffered solution containing an ECL co-reactant and Triton X-100 at ph 7.8) was added and the cAMP levels in the cell lysates were immediately determined by ECL detection with a Sector Imager 6000 Reader® (MSD). Data were analyzed using a computer-assisted non-linear regression analysis (XL fit; IDBS) and reported as either an EC50 value or a Kb value.
(§4) The Kb value reflects the potency of an antagonist and is determined by Schild analysis. In brief, concentration-response curves of an agonist are carried out in the presence of increasing concentrations of an antagonist. […] It is calculated by extrapolating the line on a Schild plot to zero on the y-axis.

hMC3-R [6] = biological target: T2, hMC3-R; assay: cyclic AMP bioassay (ECL) in CHO-K1 cells; assay type: cell-based
hMC4-R [7] = biological target: T3, hMC4-R; assay: cyclic AMP bioassay (ECL) in CHO-K1 cells; assay type: cell-based
Protocol: as §3, §4

hMC5-R [8] = biological target: T4, hMC5-R; assay: cyclic AMP bioassay (ECL) in CHO-K1 cells; assay type: cell-based; conditions: read-out: EC50 hMC5-R

Structure (SMILES): CCCC[C@H](NC(C)=O)C(=O)N[C@H]1CSSC[C@@H](C(N)=O)NC(=O)[C@@H](C)NC(=O)[C@H](Cc2c[nH]c3ccccc23)NC(=O)[C@H](CCCNC(=N)N)NC(=O)[C@@H](Cc2ccccc2)NC(=O)[C@H](Cc2c[nH]cn2)NC(=O)[C@@H](C)NC1=O [Ac-Nle-c(Cys-D-Ala-His-D-Phe-Arg-Trp-D-Ala-Cys)-NH2] (Ac-[Nle]C[dA]H[dF]RW[dA]C-NH2; disulfide 2-9)
- Ki (hMC1-R [1]; Table 5, read-out: Ki hMC1-R): 3.93 nM
- Ki (hMC3-R [2]; Table 5, read-out: Ki hMC3-R): 876 nM
- Ki (hMC4-R [3]; Table 5, read-out: Ki KMC4-R): 48 nM
- Ki (hMC5-R [4]; Table 5, read-out: Ki hMC5-R): 4940 nM

Structure (SMILES): CCCC[C@H](NC(C)=O)C(=O)N[C@H]1CSSC(C)(C)[C@@H](C(=O)O)NC(=O)[C@H](Cc2c[nH]c3ccccc23)NC(=O)[C@H](CCCNC(=N)N)NC(=O)[C@@H](Cc2ccccc2)NC(=O)[C@H](Cc2c[nH]cn2)NC(=O)[C@@H](C)NC1=O [Ac-Nle-c(Cys-D-Ala-His-D-Phe-Arg-Trp-Pen)-OH]
- Ki (hMC4-R [3]; Ki KMC4-R, Table 5): 17.4 nM
- Ki (hMC5-R [4]; Ki hMC5-R, Table 5): 165 nM

Structure (SMILES): CCCC[C@H](NC(C)=O)C(=O)N[C@@H]1C(=O)N[C@@H](Cc2c[nH]cn2)C(=O)N[C@H](Cc2ccccc2)C(=O)N[C@@H](CCCNC(=N)N)C(=O)N[C@@H](Cc2c[nH]c3ccccc23)C(=O)NCCCC(=O)N[C@H](C(N)=O)CSSC1(C)C [Ac-Nle-c(Pen-His-D-Phe-Arg-Trp-Gaba-Cys)-NH2] (Ac-[Nle][Pen]H[dF]RW[GABA]C-NH2; disulfide 2-8 (inferred))
- Ki (hMC1-R [1]; Table 5, read-out: Ki hMC1-R): 0.537 nM
- Ki (hMC3-R [2]; Table 5, read-out: Ki hMC3-R): 86.1 nM
- Ki (hMC4-R [3]; Table 5, read-out: Ki KMC4-R): 5.89 nM
- Ki (hMC5-R [4]; Table 5, read-out: Ki hMC5-R): 2.56 nM

Structure (SMILES): CC(=O)N[C@@H](Cc1ccccc1)C(=O)N[C@H]1CSSC[C@@H](C(N)=O)NC(=O)CCCNC(=O)[C@H](Cc2c[nH]c3ccccc23)NC(=O)[C@H](CCCNC(=N)N)NC(=O)[C@@H](Cc2ccccc2)NC(=O)[C@H](Cc2c[nH]cn2)NC1=O [Ac-Phe-c(Cys-His-D-Phe-Arg-Trp-Gaba-Cys)-NH2] (Ac-FCH[dF]RW[GABA]C-NH2; disulfide 2-8)
- Ki (hMC1-R [1]; Ki hMC1-R): 0.254 nM
- Ki (hMC3-R [2]; Ki hMC3-R): 18.5 nM
- Ki (hMC4-R [3]; Ki KMC4-R): 2.13 nM
- Ki (hMC5-R [4]; Ki hMC5-R): 0.714 nM

Structure (SMILES): CC(=O)N[C@@H](CCc1ccccc1)C(=O)N[C@H]1CC(=O)NCCCC[C@@H](C(N)=O)NC(=O)CCCNC(=O)[C@H](Cc2c[nH]c3ccccc23)NC(=O)[C@H](CCCNC(=N)N)NC(=O)[C@@H](Cc2ccc3ccccc3c2)NC(=O)[C@H](Cc2c[nH]cn2)NC1=O [Ac-hPhe-c(Asp-His-D-2-Nal-Arg-Trp-Gaba-Lys)-NH2]
- Ki (hMC1-R [1]; Table 5, read-out: Ki hMC1-R): 0.461 nM
- Ki (hMC3-R [2]; Table 5, read-out: Ki hMC3-R): 2.45 nM
- Ki (hMC4-R [3]; Table 5, read-out: Ki KMC4-R): 0.931 nM
- EC50 (hMC1-R [5]; Table 9C/9D): 0.413 nM
- Kb (hMC3-R [6]; Table 9C/9D, antagonist potency by Schild analysis, read-out: Kb hMC3-R): 9.32 nM
- Kb (hMC4-R [7]; Table 9C/9D, antagonist potency by Schild analysis, read-out: Kb MC4-R): 0.824 nM
- EC50 (hMC5-R [8]; Table 9C/9D): 0.307 nM

Structure (SMILES): CCOc1ccc(C[C@H]2NC(=O)[C@H](Cc3c[nH]cn3)NC(=O)[C@@H](NC(=O)[C@H](N)Cc3ccccc3)CSSC[C@H](C(=O)N[C@H](C(N)=O)[C@@H](C)O)NC(=O)CCNC(=O)[C@H](Cc3c[nH]c4ccccc34)NC(=O)[C@H](CCCNC(=N)N)NC2=O)cc1 [D-Phe-c(Cys-His-D-(Et)Tyr-Arg-Trp-β-Ala-D-Cys)-Thr-NH2] (H-[dF]CH[dY](Et)RW[βAla][dC]T-NH2; disulfide 2-8)
- Ki (hMC1-R [1]; Table 5, read-out: Ki hMC1-R): 0.05 nM
- Ki (hMC3-R [2]; Table 5, read-out: Ki hMC3-R): 9.3 nM
- Ki (hMC5-R [4]; Table 5, read-out: Ki hMC5-R): 2.9 nM
- EC50 (hMC1-R [5]; Table 9A/9B): 0.35 nM
- EC50 (hMC3-R [6]; Table 9A/9B, read-out: EC50 hMC3-R): 1.1 nM
- EC50 (hMC4-R [7]; Table 9A/9B, read-out: EC50 hMC4-R): 0.11 nM
- EC50 (hMC5-R [8]; Table 9A/9B): 0.37 nM

Structure (SMILES): C[C@@H]1C(=O)N[C@@H](Cc2cnc[nH]2)C(=O)N[C@H](Cc2ccccc2)C(=O)N[C@@H](CCCNC(=N)N)C(=O)N[C@@H](Cc2c[nH]c3ccccc23)C(=O)N[C@H](C(N)=O)CNC(=O)C[C@@H]2NC(=O)N1C2=O [c[Hydantoin(C(O)-(Asp-D-Ala))-His-D-Phe-Arg-Trp-Dap]-NH2]
- Ki (hMC1-R [1]; Table 7, read-out: Ki hMC1): 66.6 nM
- Ki (hMC4-R [3]; Table 7, read-out: Ki hMC4): 19.9 nM
- EC50 (hMC3-R [6]; Table 11, read-out: EC50 hMC3): 49.3 nM
- EC50 (hMC4-R [7]; Table 11, read-out: EC50 hMC4): 2.12 nM

Structure (SMILES): CC[C@H](C)[C@@H]1NC(=O)N([C@H]2CSSC[C@@H](C(N)=O)NC(=O)[C@H](Cc3c[nH]c4ccccc34)NC(=O)[C@H](CCCNC(=N)N)NC(=O)[C@@H](Cc3ccccc3)NC(=O)[C@H](Cc3cnc[nH]3)NC(=O)[C@@H](C)NC2=O)C1=O [c[Hydantoin(C(O)-(Ile-Cys))-D-Ala-His-D-Phe-Arg-Trp-Cys]-NH2]
- Ki (hMC1-R [1]; Ki hMC1, Table 7): 53.4 nM
- Ki (hMC4-R [3]; Ki hMC4, Table 7): 41.6 nM
- EC50 (hMC3-R [6]): 8.51 nM
- EC50 (hMC4-R [7]): 1.85 nM
